Data published in patent publication US20230324370A1, “A DNA-Based Voltmeter for Organelles” (The University of Chicago, priority 2020, published 2023).

Tests used:
[1] = system: endogenous scavenger receptor; experiment: Competition assay of DNA nanodevice uptake in cell types expressing endogenous scavenger receptor; format: cell-based; conditions: THP-1, BHK-21, HDF, RAW 264.7, T-47D, COS-7
[2] = target: T1, human macrophage scavenger receptor (hMSR1) (Homo sapiens, UniProt P21757); experiment: Competition assay of DNA device uptake with maleylated BSA; format: cell-based
T1 construct: expressed in transfected cells; host or cells: HEK 293T
T1 sequence (P21757 1-451): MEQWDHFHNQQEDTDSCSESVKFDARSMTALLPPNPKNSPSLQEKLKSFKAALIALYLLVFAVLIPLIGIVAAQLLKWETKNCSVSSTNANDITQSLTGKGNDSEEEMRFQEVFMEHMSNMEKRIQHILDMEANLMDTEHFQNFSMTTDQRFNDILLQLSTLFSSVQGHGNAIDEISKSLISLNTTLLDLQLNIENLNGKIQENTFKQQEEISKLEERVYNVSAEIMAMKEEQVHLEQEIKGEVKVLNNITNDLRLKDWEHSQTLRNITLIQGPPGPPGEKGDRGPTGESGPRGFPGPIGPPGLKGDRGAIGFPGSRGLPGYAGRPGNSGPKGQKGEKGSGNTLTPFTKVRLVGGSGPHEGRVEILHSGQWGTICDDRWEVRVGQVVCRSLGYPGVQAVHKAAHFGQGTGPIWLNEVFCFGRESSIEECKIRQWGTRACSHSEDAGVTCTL
Protocol: Competition assay: HEK 293T cells transfected with hMSR1-CFP were washed with 1X PBS, pH 7.4 prior to labeling with the DNA device. Cells were incubated with 20 µM maleylated BSA (mBSA) for 15 min, followed by a 20 min pulse of 500 nM DNA device and 20 µM mBSA to allow internalization by receptor mediated endocytosis. Control cells were washed and pulsed for 20 mins in 500 nM DNA device without mBSA. Cells were then washed three times with 1× PBS and chased for 30 mins in complete DMEM media. Complete media was replaced with Opti-MEM solution (Thermofisher) and imaged by widefield microscopy for quantification and confocal microscopy for representative images. Whole cell intensities in the Atto647N channel were quantified for cells expressing hMSR1-CFP observed in CFP channel. The mean intensity from three different experiments were normalized against the no mBSA control, for n~50 cells.

early endosomes = experiment: Time-lapse imaging of early endosome membrane potential upon TRPML1 activation; format: cell-based; conditions: ML-SA1
[3] = system: lysosomes in HEK 293T cells; experiment: In situ lysosomal membrane potential measurement with Voltair^IM, with and without pharmacological treatment; format: cell-based, Human; conditions: for ΔVLys: HEK 293T
[4] = system: recycling endosomes in HEK 293T cells; experiment: Organellar membrane potential measurement, recycling endosomes; format: cell-based, Human; conditions: 500 nM bafilomycin A1
[5] = system: trans Golgi network in HEK 293 cells expressing scFv-furin; experiment: Organellar membrane potential measurement, trans Golgi network; format: cell-based, Human; conditions: V-ATPase inhibition (bafilomycin A1 500 nM per FIG. 4)
[6] = system: cytosolic Ca^2+ in COS-7 cells; experiment: Cytosolic calcium imaging with Fluo-4 AM upon ATP addition; format: cell-based, Monkey; conditions: COS-7, 100 µM ATP
lysosomes of COS-7 cells = experiment: Time lapse imaging of lysosomal membrane potential upon ATP addition; format: cell-based, Monkey; conditions: COS-7, 100 µM ATP
Text: Time lapse Imaging: […] Image acquisition was briefly paused at indicated time for addition of chemicals (ML-SA1, Baf-A1, ATP or DMSO) to cells. To minimize bleaching, time-lapse imaging was done at single focal plane. Z-drift compensator module from IX83 was applied to minimize out of focus drift during time lapse imaging. The extracellular ATP induced cytosolic calcium increase was imaged by labeling COS-7 cells with cell permeable calcium sensitive dye Fluo4-AM ester. Time-lapse imaging of Fluo-4 labeled COS-7 cells were acquired using a 480/20 band pass excitation filter, 520/40 band pass emission filter and 89016 dichroic, at 1 s interval for 20 mins.

[7] = in the presence of Torin-1 and trans-ned-19 1 µM

maleylated BSA: a strong ligand for scavenger receptors
effect on DNA nanodevice uptake [1]: decreases uptake
effect on endocytosis of Voltair^PM ([2]; CFP-hMSR1 transfected HEK 293T, 30eq. mBSA, 500 nM Voltair^PM, 30 mins): blocks endocytosis
effect on uptake of Voltair^IM ([2]; HEK 293T cells expressing hMSR1-CFP): efficiently competed out

CC1CC(C)(C)N(C(=O)CN2C(=O)c3ccccc3C2=O)c2ccccc21 (stereo not shown) [ML-SA1]
membrane potential in early endosomes (VEE) upon treatment (early endosomes): stayed constant
ΔVLys ([3]; ML-SA1 20 µM, TRPML1 activator): 90 mV

CCC(=O)N1CCN(c2ccc(-n3c(=O)ccc4cnc5ccc(-c6cnc7ccccc7c6)cc5c43)cc2C(F)(F)F)CC1 [Torin-1]
reduction of VLys from the resting VLys ([3]; Torin-1 1 µM, mTORC1 inhibition): ~60 mV

O=c1[nH]c2cc(C(F)(F)F)ccc2n1-c1cc(C(F)(F)F)ccc1O [NS1619]
ΔVLys ([3]; ML-SA1 as well as BK channel agonist NS1619): 50 mV

CO/C1=C\C(C)=C\[C@@H](C)[C@@H](O)[C@@H](C)C/C(C)=C/C=C/[C@H](OC)[C@@H]([C@@H](C)[C@@H](O)[C@H](C)[C@@]2(O)C[C@@H](O)[C@H](C)[C@@H](C(C)C)O2)OC1=O [bafilomycin A1]
change of VRE upon V-ATPase inhibition [4]: no change
reduction of VLys from the resting membrane potential ([3]; bafilomycin A1 500 nM, V-ATPase inhibition): ~ 100 mV
membrane potential remaining across the TGN after V-ATPase inhibition [5]: +75 mV

COc1ccc([C@H]2N[C@H](C(=O)O)Cc3c2[nH]c2ccccc32)cc1CN1CCN(c2ccccc2F)CC1 [trans-ned-19]
VLys [3, 7]: +80 mV
ΔVLys due to TPC2 channel inhibition [3, 7]: 35 mV

Nc1ncnc2c1ncn2[C@@H]1O[C@H](COP(=O)(O)OP(=O)(O)OP(=O)(O)O)[C@@H](O)[C@H]1O [ATP]
time to maximum cytosolic Ca^2+ level after addition [6]: ~ 5 seconds
acute hyperpolarization of the lysosomal membrane (lysosomes of COS-7 cells): +75 mV
duration of lysosomal hyperpolarization (lysosomes of COS-7 cells): ~ 100 seconds
time from maximal cytosolic Ca^2+ elevation to lysosomal hyperpolarization (lysosomes of COS-7 cells): ~ 80 seconds
